Test results as given in US20160051514A1, “METHODS FOR TREATMENT OF CARDIOMYOPATHY” (THE BRIGHAM AND WOMEN'S HOSPITAL, INC., priority 2013, published 2016).
Entries after “also recorded” stand apart in the source; their conditions may differ.

Tests used:
[1] = tested on: 2057del2 plakoglobin (Plk) transgenic mice; assay: Mouse model of AC: transgenic cardiac myocyte-specific 2057del2 plakoglobin (Plk); type: in vivo; conditions: daily injections for 6 weeks
Description: 2 different mouse models of AC were studied: a transgenic line with cardiac myocyte-specific expression of 2057del2 plakoglobin (Plk) and a mutant desmoglein-2 (Dsg2) knock-in model. ECG telemetry and echocardiographic analyses were performed in mutant and wildtype mice treated with daily injections of SB216763 or vehicle for 6 (2057del2 Plk) or 13 (Dsg2) weeks. Hearts excised at selected time points were analyzed for histology, apoptosis and distribution of key intercalated disk proteins.

[2] = tested on: zebrafish ventricular myocytes expressing 2057del2 plakoglobin; assay: Action potentials by current clamp in isolated zebrafish ventricular myocytes; type: cell-based, zebrafish (Danio rerio)
Source text: (§1) Zebrafish ventricular myocyte isolation and culture: Zebrafish (Danio rerio) were bred and maintained at 28′C with 14 hr exposure to light and 10 hr to dark (day/night cycle) according to IACUC-approved protocols. Hearts were extracted from anesthetized fish at 21-56 days post-fertilization(dpf) using micro-dissecting tweezers (Roboz Surgical Instruments), washed vigorously in culture medium (M199, primocin, HEPES, L-glutamine, 10% fetal bovine serum) and placed in fresh medium. Ventricles were separated at the atrio-ventricular junction, pooled in a tube containing enzyme solution (HBSS without calcium/magnesium, Trypsin, PCN/Streptomycin, HEPES) at 37° C. and agitated in a thermomixer at 1000-1200 RPM. Dissociated cells were collected every 10 min from supernatants and transferred to tubes containing culture medium and 10% fetal bovine srum to halt trypsinization. Cells were then pelleted by centrifugation, resuspended in fresh culture medium, and seeded on sterile cover slips coated with laminin (20 μg/ml)^11 at 28° C. in a 5% CO2 incubator. After 36 hr, culture medium was changed and unattached cells were removed.
After opening the gigaseal, the microelectrode amplifier (HEKA, EP-10, Lambrecht, Germany) was set to zero holding current and cells were stimulated at a frequency of 0.5 to 1 Hz. Recordings were corrected for a junction potential of 12 mV.^12,13
as §1, with “culture:” for “culture: Zebrafish (Danio rerio) were bred and maintained at 28′C with 14 hr exposure to light and 10 hr to dark (day/night cycle) according to IACUC-approved protocols.”, “3-4 or 5-7 weeks post-fertilization” for “21-56 days post-fertilization(dpf)”, “(calcium/magnesium free-HBSS containing trypsin, penicillin/streptomycin,” for “(HBSS without calcium/magnesium, Trypsin, PCN/Streptomycin,”, “serum” for “srum”, “μg/ml)” for “μg/ml)^11”, “28.5°” for “28°”
Cellular electrophysiology methods: Current clamp experiments in isolated neonatal rat and zebrafish ventricular myocytes were carried out using standard protocols (31). […] After opening the gigaseal, the microelectrode amplifier (HEKA, EP-10, Lambrecht, Germany) was set to zero holding current and cells were stimulated at a frequency of 0.5 to 1 Hz. Recordings were corrected for a junction potential of 12 mV (32,33). The chemical composition of the external and pipette solutions is described in supplemental material.

[3] = tested on: 2057del2 plakoglobin zebrafish; assay: Survival and cardiac physiology in the zebrafish model of ACM; type: in vivo
Description: In-house software (implemented in MATLAB™) was used to determine heart rate, while measurements of ventricular long and short axes in both diastole and systole were obtained using ImageJ™. Cardiac output was measured as diastolic minus systolic ventricular volume multiplied by heart rate, as outlined by Shin et al (30). Fractional shortening was calculated as end-diastolic diameter minus end-systolic diameter divided by end-diastolic diameter.
Survival studies: Embryos were kept in petri dishes until 7 dpf and then transferred to nursery tanks with larval food. Observations for phenotype and survival were recorded for several weeks. Data are presented as a Kaplan-Meier curve using Graphpad™ software.

[4] = tested on: neonatal rat ventricular myocytes expressing 2057del2 plakoglobin; assay: Western immunoblotting of total cellular protein content; type: cell-based
Description: (§2) Western Immunoblotting: Cells were washed in PBS and scraped from culture dishes in a low ionic strength buffer containing protease inhibitors (1 mM NaHCO3, 5 mM EDTA, 1 mM EGTA, 1 μM leupeptin, 1 μM pepstatin, 0.1 μM aprotinin, 1 mM benzamidine, 1 mM iodoacetamide, 1 mM phenylmethylsulfortylfluoride). Following centrifugation, the pellet was resuspended in the same buffer and aliquots containing 10 μg of total protein were analyzed by SDS polyacrylamide gel electrophoresis. Proteins were detected by enhanced chemiluminescence (ECL. Amersham Corp). All blots were stripped in 62.5 mM Tris-HCl, pH 6.8, 100 mM β-mercapto-ethanol, and re-probed with a mouse monoclonal anti-GAPDH antibody (Fitzgerald) as a loading control.
as §2, with “phenylmethylsulfonylfluoride).” for “phenylmethylsulfortylfluoride).”, “(ECL,” for “(ECL.”

[5] = 3-4 weeks post-fertilization, 2057del2 plakoglobin + SB2
[6] = 3-4 weeks post-fertilization, Control + SB2
[7] = 5-7 weeks post-fertilization, 2057del2 plakoglobin + SB2, embryos treated at 1 dpf for 6 days (3.0 μM)
[8] = 5-7 weeks post-fertilization, Control + SB2, embryos treated at 1 dpf for 6 days (3.0 μM)
[9] = embryos treated at 1 dpf for 6 days, myocytes studied at 5-7 weeks

Cn1cc(C2=C(c3ccc(Cl)cc3Cl)C(=O)NC2=O)c2ccccc21 [SB216763]
Myocyte necrosis, fibrosis and inflammation [1]: nearly absent
Redistribution of junctional signals for Plk, Cx43 and SAP97, and myocardial apoptosis [1]: normalized
PVCs ([1]; ECG telemetry): 2.8 ± 0.6 min⁻¹
Action potential duration [2, 5]: 175 ms
Maximal upstroke velocity [2, 5]: 22 V/s
Resting membrane potential [2, 5]: −75 mV
Action potential duration [2, 6]: 173 ms
Maximal upstroke velocity [2, 6]: 35 V/s
Resting membrane potential [2, 6]: −79 mV
Action potential duration [2, 7]: 154 ms
Maximal upstroke velocity [2, 7]: 66 V/s
Resting membrane potential [2, 7]: −78 mV
Action potential duration [2, 8]: 195 ms
Maximal upstroke velocity [2, 8]: 53 V/s
Resting membrane potential [2, 8]: −77 mV
Effect on APD80% in fish expressing mutant plakoglobin [2, 9]: shortened APD8O% beyond control levels; also recorded: shortened APD80% beyond control levels
Effect on RMP and dV/dtmax in fish expressing mutant plakoglobin [2, 9]: normalized RMP and dV/dtmax
Effect on action potentials in myocytes from control fish [2, 9]: had no effect on action potentials; also recorded: did not affect action potentials
Effect on action potential remodeling, short-term exposure of isolated cells ([2]; isolated myocytes from transgenic fish treated in culture for 36 hr): normalized action potential remodeling
Survival at 3 months ([3]; longer term treatment of larval fish (7 days)): substantially increased survival
Cardiac phenotype (bradycardia, contractility, heart failure) ([3]; mutant fish): rescues the heart failure phenotype; also recorded: prevented heart failure; also recorded: prevented bradycardia and contractility defects
Survival at 28 days ([3]; mutant fish): significantly increased survival
Cardiac phenotype (bradycardia, contractility, heart failure) ([3]; mutant fish, listed as SB2): reduced nppb expression and bradycardia, improved contractility
Survival / mortality of mutant fish ([3]; time not stated): reduced mortality; also recorded: increased survival
Developmental abnormalities ([3]; wide range of doses during embryonic or larval development): No developmental abnormalities were observed
Total cellular content of Nav1.5 [4]: nor did exposure to SB216763 affect overall levels of Nav1.5; also recorded: without an apparent change in total cellular content of SAP97 and Nav1.5
Total cellular content of SAP97 [4]: without apparent changes in the total amount of SAP97; also recorded: without an apparent change in total cellular content of SAP97 and Nav1.5
Total cellular content of plakoglobin [4]: no apparent change in the total cellular content of plakoglobin; also recorded: had no apparent effect on plakoglobin expression levels
Total cellular content / expression of Cx43 ([4]; control and transfected myocytes, listed as SB2): Increased Cx43 expression was observed
